Experimental data published in patent US11945822B2, “Pyrazolo-triazine and/or pyrazolo-pxrimidine derivatives as selective inhibitor of cyclin dependent kinase” (QURIENT CO., LTD., priority 2018, dated 2024).
Like-named read-outs stand apart in the source and are kept apart here.

Legend:
[1] = target: T1, CDK1/Cyclin B (Homo sapiens, UniProt P06493); assay: Enzymatic assay for CDK1 (FRET based LANCE Ultra kinase assay); type: biochemical
T1 construct: purchased Invitrogen PR4768C
Experimental: (§1) Enzymatic Binding Assay Protocol for CDK1, CDK2, CDK5 and CDK7
(§2) Inhibition activity of the respective compound on CDK kinase under Km value of ATP was tested in FRET based The LANCE® Ultra kinase assay (Perkin Elmer), which uses a ULight™-labeled peptide substrate and an appropriate Europium-labeled anti-phospho-antibody. Test compounds were made with DMSO solutions, and then 4-fold serial dilutions for 8 doses were prepared using automated liquid handler (POD810, LABCYTE) and 80 nL/well of diluted compound solutions were added into the 384-well plates (Greiner, Cat #784075). And then 68 nM of ULight-MBP peptide (Perkin Elmer, Cat #TRF0109-M) and 5 ul/well of ATP (Sigma, Cat #A7699) were added to the plate. After 1 min centrifugation at 1000 rpm, Purified CDKs/Cyclin complex were added following concentrations respectively. 24 uM for CDK1/Cyclin B (Invitrogen, Cat #PR4768C), 22 uM for CDK2/Cyclin A (Invitrogen, Cat #PV6290), 10 uM for CDK5/p25 (Invitrogen, Cat #PR8543B) and […] for CDK7/Cyclin H/MNAT1 (Invitrogen, Cat #PR6749B) were added to the each corresponding plate for CDK1, CDK2, CDK5 and CDK7. Incubate at 23° C. for 60 min and then Eu-labeled anti-phospho-Myelin Basic Protein (PE, Cat #TRF0201-M) and EDTA (Invitrogen, Cat #15575038) mixture in Lance Detection Buffer (Perkin Elmer, Cat #CR97100) was added in each well. After additional incubation at 23° C. for 60 min, test articles were measured the fluorescence using Envision leader (Perkin Elmer, USA) [Laser as excitation light; […] as the first and the second emission filter]. Data was analyzed using XL Fit software.

[2] = target: T2, CDK2/Cyclin A (Homo sapiens, UniProt P24941); assay: Enzymatic assay for CDK2 (FRET based LANCE Ultra kinase assay); type: biochemical
T2 construct: purchased Invitrogen PV6290
Experimental: as §1, §2

[3] = target: T3, CDK5/p25 (Homo sapiens, UniProt Q00535); assay: Enzymatic assay for CDK5 (FRET based LANCE Ultra kinase assay); type: biochemical
T3 construct: purchased Invitrogen PR8543B
Experimental: as §1, §2

[4] = target: T4, CDK7/Cyclin H/MNAT1 (Homo sapiens, UniProt P50613); assay: Enzymatic assay for CDK7 (FRET based LANCE Ultra kinase assay); type: biochemical
T4 construct: purchased Invitrogen PR6749B
Experimental: as §1
Inhibition activity of the respective compound on CDK kinase under Km value of ATP was tested in FRET based The LANCE® Ultra kinase assay (Perkin Elmer), which uses a ULight™-labeled peptide substrate and an appropriate Europium-labeled anti-phospho-antibody. […] After 1 min centrifugation at 1000 rpm, Purified CDKs/Cyclin complex were added following concentrations respectively. […] Data was analyzed using XL Fit software.

[5] = test system: H460; assay: Cellular H460 viability assay (CellTiter-Glo, 72 hours); type: cell-based; settings: Homo sapiens, NCI-H460
Experimental: All cell lines were routinely tested for mycoplasma.
The effect of the CDK7 inhibitor to inhibit the growth of target cancer cells was evaluated through the 72 hours time period of viability assay. Briefly, the candidate cell line ware plated in 96 well plate at the following density of cells respectively. […] DMSO solvent without compound served as a control and final DMSO concentration less than 0.1%. After 72 hours of incubation at 37° C., 5% CO2 incubator, cells were analyzed for the viability using the CellTiter-Glo Luminescent Cell Viability Assay (Promega, Cat #G7570). All viability assays were performed in duplicate and Luminescence was read using an Envision (Perkin Elmer, USA). Data was analyzed using XLfit software.

[6] = read-out: CDK1 enzymatic activity (IC50 range)
[7] = read-out: CDK2 enzymatic activity (IC50 range)
[8] = read-out: CDK5 enzymatic activity (IC50 range)
[9] = read-out: CDK7 enzymatic activity (IC50 range)

T1 sequence (P06493 whole entry): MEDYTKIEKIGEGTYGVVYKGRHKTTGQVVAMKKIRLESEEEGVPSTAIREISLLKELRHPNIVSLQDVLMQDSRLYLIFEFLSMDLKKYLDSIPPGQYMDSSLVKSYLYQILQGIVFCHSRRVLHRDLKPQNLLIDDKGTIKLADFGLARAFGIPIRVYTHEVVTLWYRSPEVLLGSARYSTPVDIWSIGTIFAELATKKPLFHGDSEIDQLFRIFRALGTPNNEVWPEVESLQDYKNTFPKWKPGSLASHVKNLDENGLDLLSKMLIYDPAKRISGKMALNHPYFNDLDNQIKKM
T1 sequence (P14635 whole entry partner): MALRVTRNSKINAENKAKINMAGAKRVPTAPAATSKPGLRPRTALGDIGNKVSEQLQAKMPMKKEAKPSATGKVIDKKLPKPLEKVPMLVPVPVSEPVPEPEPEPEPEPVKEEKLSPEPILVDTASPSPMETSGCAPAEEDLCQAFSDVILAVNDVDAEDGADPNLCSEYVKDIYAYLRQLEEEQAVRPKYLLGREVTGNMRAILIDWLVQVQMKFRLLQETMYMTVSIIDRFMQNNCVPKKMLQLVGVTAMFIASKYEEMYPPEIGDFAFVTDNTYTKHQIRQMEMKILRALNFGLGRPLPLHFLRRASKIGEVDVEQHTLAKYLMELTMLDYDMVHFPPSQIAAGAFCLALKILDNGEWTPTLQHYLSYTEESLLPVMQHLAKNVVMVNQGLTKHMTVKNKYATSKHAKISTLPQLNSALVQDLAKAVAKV
T3 sequence (Q00535 whole entry): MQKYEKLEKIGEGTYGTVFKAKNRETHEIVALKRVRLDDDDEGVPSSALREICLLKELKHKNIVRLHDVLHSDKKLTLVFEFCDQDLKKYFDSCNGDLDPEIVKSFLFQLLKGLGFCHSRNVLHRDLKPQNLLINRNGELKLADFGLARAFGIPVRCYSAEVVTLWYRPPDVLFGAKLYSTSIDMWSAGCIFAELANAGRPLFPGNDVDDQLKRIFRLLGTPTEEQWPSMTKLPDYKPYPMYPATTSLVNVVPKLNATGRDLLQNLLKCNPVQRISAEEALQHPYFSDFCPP
T3 sequence (Q15078 99-307 partner limits assumed): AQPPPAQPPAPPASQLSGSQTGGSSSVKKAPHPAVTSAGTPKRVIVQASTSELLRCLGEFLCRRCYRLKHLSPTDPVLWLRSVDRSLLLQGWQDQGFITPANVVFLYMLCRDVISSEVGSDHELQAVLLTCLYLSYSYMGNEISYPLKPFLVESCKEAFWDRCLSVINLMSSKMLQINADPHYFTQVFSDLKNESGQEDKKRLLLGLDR
T4 sequence (P50613 whole entry): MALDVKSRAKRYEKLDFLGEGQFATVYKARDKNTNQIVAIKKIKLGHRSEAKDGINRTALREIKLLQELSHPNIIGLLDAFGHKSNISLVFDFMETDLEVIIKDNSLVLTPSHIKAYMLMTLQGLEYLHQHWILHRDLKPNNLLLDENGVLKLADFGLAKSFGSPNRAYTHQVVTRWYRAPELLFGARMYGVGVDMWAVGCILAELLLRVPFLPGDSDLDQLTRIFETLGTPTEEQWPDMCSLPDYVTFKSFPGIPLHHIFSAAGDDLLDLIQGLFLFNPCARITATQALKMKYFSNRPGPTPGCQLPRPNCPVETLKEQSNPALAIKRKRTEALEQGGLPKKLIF
T4 sequence (P51946 whole entry partner): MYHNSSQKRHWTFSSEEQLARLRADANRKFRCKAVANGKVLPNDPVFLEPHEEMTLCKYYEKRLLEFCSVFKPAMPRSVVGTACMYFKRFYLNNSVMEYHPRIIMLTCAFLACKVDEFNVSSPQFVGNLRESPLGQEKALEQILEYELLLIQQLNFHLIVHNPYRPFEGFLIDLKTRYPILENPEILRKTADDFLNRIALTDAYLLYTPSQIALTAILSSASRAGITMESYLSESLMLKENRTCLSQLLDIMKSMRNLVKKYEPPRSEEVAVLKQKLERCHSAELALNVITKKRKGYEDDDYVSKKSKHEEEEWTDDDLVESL
T4 sequence (P51948 whole entry partner): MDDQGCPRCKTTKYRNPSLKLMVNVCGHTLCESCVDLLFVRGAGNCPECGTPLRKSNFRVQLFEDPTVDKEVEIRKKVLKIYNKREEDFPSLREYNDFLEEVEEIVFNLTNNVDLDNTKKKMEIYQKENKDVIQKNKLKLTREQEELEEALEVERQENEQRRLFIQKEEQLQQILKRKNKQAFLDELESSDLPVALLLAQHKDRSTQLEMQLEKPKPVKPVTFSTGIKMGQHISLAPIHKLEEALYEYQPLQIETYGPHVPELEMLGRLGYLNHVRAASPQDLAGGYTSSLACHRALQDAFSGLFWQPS

| SMILES | IC50 [1, 6] [nM] | IC50 [2, 7] [nM] | IC50 [3, 8] [nM] | CDK1/CDK7: Selectivity of CDK7 inhibition over CDK1 inhibition ([4]; CDK7 over CDK1) | CDK2/CDK7: Selectivity of CDK7 inhibition over CDK2 inhibition ([4]; CDK7 over CDK2) | CDK5/CDK7: Selectivity of CDK7 inhibition over CDK5 inhibition ([4]; CDK7 over CDK5) | IC50 [4, 9] [nM] | IC50 [5] [nM] | IC50 ([1]; read-out: CDK1 enzymatic activity (IC50 activity range)) [nM] | IC50 ([2]; read-out: CDK2 enzymatic activity (IC50 activity range)) [nM] | IC50 ([3]; read-out: CDK5 enzymatic activity (IC50 activity range)) [nM] | CDK1/CDK7: Selectivity of CDK7 inhibition over CDK1 inhibition ([4]; CDK1/CDK7) | CDK2/CDK7: Selectivity of CDK7 inhibition over CDK2 inhibition ([4]; CDK2/CDK7) | CDK5/CDK7: Selectivity of CDK7 inhibition over CDK5 inhibition ([4]; CDK5/CDK7) | IC50 ([4]; read-out: CDK7 enzymatic activity (IC50 activity range)) [nM] |
| --- | --- | --- | --- | --- | --- | --- | --- | --- | --- | --- | --- | --- | --- | --- | --- |
| CC(C)c1cnn2c(NCc3ccccc3-n3cccn3)nc(-c3ccc(C4CCNCC4)cc3)nc12 [Compound 168] | > 1000 | 100 to 1000 | 100 to 1000 | A (A=greater than 200 fold) | B (B=less than 200 fold, but greater than 20 fold) | B (B=less than 200 fold, but greater than 20 fold) | < 100 |  |  |  |  |  |  |  |  |
| CC(C)c1cnn2c(NCc3ccc(Cl)c(-n4cccn4)c3)nc(N3CCC(N)CC3)nc12 [Compound 67] | > 1000 | 100 to 1000 | 100 to 1000 | B (B=less than 200 fold, but greater than 20 fold) | C (C=less than 20 fold) | C (C=less than 20 fold) | < 100 | 1000 to 10000 |  |  |  |  |  |  |  |
| Cc1nc2c(CNc3nc(N4CCC(N)CC4)nc4c(C(C)C)cnn34)cccc2o1 [Compound 33] | 100 to 1000 | 100 to 1000 | < 100 | B (B=less than 200 fold, but greater than 20 fold) | B (B=less than 200 fold, but greater than 20 fold) | C (C=less than 20 fold) | < 100 | < 1000 |  |  |  |  |  |  |  |
| CNC(=O)c1cccnc1CNc1nc(N2CCC(N)CC2)nc2c(C(C)(C)C)cnn12 [Compound 15] | > 1000 | > 1000 | > 1000 | A (A=greater than 200 fold) | A (A=greater than 200 fold) | B (B=less than 200 fold, but greater than 20 fold) | < 100 |  |  |  |  |  |  |  |  |
| CCCNC(=O)Nc1ccccc1CNc1nc(N2CCC(N)CC2)nc2c(C(C)C)cnn12 [Compound 11] | > 1000 | 100 to 1000 | 100 to 1000 | A (A=greater than 200 fold) | B (B=less than 200 fold, but greater than 20 fold) | B (B=less than 200 fold, but greater than 20 fold) | < 100 | < 1000 |  |  |  |  |  |  |  |
| N#Cc1cnn2c(NCc3ccccc3-n3cccn3)nc(N3CCC(N)CC3)nc12 [Compound 34] | > 1000 | 100 to 1000 | 100 to 1000 | B (B=less than 200 fold, but greater than 20 fold) | C (C=less than 20 fold) | C (C=less than 20 fold) | < 100 | 1000 to 10000 |  |  |  |  |  |  |  |
| NC1CCN(c2nc(NCc3ccccc3-n3cccn3)n3ncc(C4CCCC4)c3n2)CC1 [Compound 12] | 100 to 1000 | 100 to 1000 | < 100 | B (B=less than 200 fold, but greater than 20 fold) | B (B=less than 200 fold, but greater than 20 fold) | C (C=less than 20 fold) | < 100 | < 1000 |  |  |  |  |  |  |  |
| Cc1cccc(-c2cc(C(C)(C)O)n(C)n2)c1CNc1nc(N2CCC(N)CC2)nc2c(C(C)C)cnn12 [Compound 259] |  |  |  |  |  |  |  |  | > 1000 | > 1000 | > 1000 | A (A=greater than 200 fold) | A (A=greater than 200 fold) | A (A=greater than 200 fold) | < 100 |
| CC(C)c1cnn2c(NCc3ccccc3-n3cccn3)nc(C(=O)N3CCN(C)CC3)nc12 [Compound 7] |  |  |  |  |  |  |  | > 10000 |  |  |  |  |  |  |  |
| CC(C)c1cnn2c(NCc3ccccc3-n3cccn3)nc([C@H]3CC[C@H](N)CC3)nc12 [Compound 25] | 100 to 1000 | < 100 | < 100 | B (B=less than 200 fold, but greater than 20 fold) | C (C=less than 20 fold) | C (C=less than 20 fold) | < 100 | < 1000 |  |  |  |  |  |  |  |
